One data set has as its system Peronospora parasitica. In words: In vivo preventive test on Peronospora parasitica (Crucifer downy mildew). To be noted: Hyaloperonospora parasitica, in Brassica oleracea, 120 h, cabbage, evaluated 5 days after inoculation, read-out: efficacy; for pest or weed control at 125 ppm: 125 ppm of active ingredient; for pest or weed control at 500 ppm: 500 ppm of active ingredient; for pest or weed control at 31 ppm: 31 ppm of active ingredient. The protocol:
The tested active ingredients were prepared by homogenization in a mixture of acetone/Dimethyl sulfoxide/Tween®, and then diluted with water to obtain the desired active material concentration. The young plants of cabbage were treated by spraying the active ingredient prepared as described above. Control plants were treated only with an aqueous solution of acetone/Dimethyl sulfoxide/Tween®.
After 72 hours, the plants were contaminated by spraying the leaves with an aqueous suspension of Peronospora parasitica spores. The contaminated cabbage plants were incubated for 5 days at 20° C. and at 100% relative humidity.
The test was evaluated 5 days after the inoculation. 0% means an efficacy which corresponds to that of the control plants while an efficacy of 100% means that no disease was observed.
Compounds CMP2 and CMP3 were tested in an in vivo preventive test on Peronospora parasitica (Crucifer downy mildew) in the same conditions as described in Example G.

A short description of data set [1]: LogP by HPLC on reversed phase columns (EEC directive 79/831 Annex V.A8). It counts as physicochemical. The following applies: reversed phase HPLC columns. The procedure: In the above tables, measurement of LogP values was performed according to EEC directive 79/831 Annex V.A8 by HPLC (High Performance Liquid Chromatography) on reversed phase columns with the following methods: • ^[a]
Calibration was done with straight-chain alkan2-ones (with 3 to 16 carbon atoms) with known LogP values (measurement of LogP values using retention times with linear interpolation between successive alkanones). Lambda-max-values were determined using UV-spectra from 200 nm to 400 nm and the peak values of the chromatographic signals.

Data set [2] has as its system Colletotrichum lindemuthianum. In words: In vivo preventive test on Colletotrichum lindemuthianum (Antrachnose on bean). The following applies: 144 h, inoculation 72 h after spraying, evaluated 6 days after inoculation, read-out: efficacy; for pest or weed control at 500 ppm: 500 ppm of active ingredient. The procedure: (§1) The tested active ingredients were prepared by homogenization in a mixture of acetone/Dimethyl sulfoxide/Tween®, and then diluted with water to obtain the desired active material concentration. The young plants of bean were treated by spraying the active ingredient prepared as described above. Control plants were treated only with an aqueous solution of acetone/Dimethyl sulfoxide/Tween®.
After 72 hours, the plants were contaminated by spraying the leaves with an aqueous suspension of Colletotrichum lindemuthianum spores. The contaminated bean plants were incubated for 24 hours at 20° C. and at 100% relative humidity and then for 5 days at 20° C. and at 90% relative humidity. The test was evaluated 6 days after the inoculation. 0% means an efficacy which corresponds to that of the control plants while an efficacy of 100% means that no disease was observed.
Compound CMP1 was tested in an in vivo preventive test on Colletotrichum lindemuthianum (Antrachnose on bean) in the same conditions as described in Example F.

Data set [3] has as its system salicylate responsive promoter sequence of the PR1 (pathogenesis-related protein I) gene (AT2G14610). The data set can be described thus: Induction of defense gene expression in Arabidopsis thaliana (PR1 promoter-GFP reporter plants). Type of data set: in vivo. To be noted: Arabidopsis thaliana, 72 h, 3rd day after spraying, mock treated leaves set as 1.00, read-out: relative fluorescence value; for fold induction at 75 ppm: 75 ppm of compound. The protocol:
Arabidopsis thaliana reporter plants containing the coding sequence of a green fluorescent protein (GFP) linked to the salicylate responsive promoter sequence of the PR1 (pathogenesis-related protein I) gene (AT2G14610) were grown for five days and then sprayed with compounds. On the 3rd day after spraying, plant fluorescence was assessed with a MacroFluo instrument from Leica Microsystems (Wetzlar, Germany). Fluorescences were quantified with the Meta-Morph Microscopy Automation & Image Analysis Software (Molecular Devices, Sunnyvale, Calif., United States). Background fluorescence in mock treated leaves was set as 1.00.

A further data set has as its system Uromyces appendiculatus. In words: In vivo preventive test on Uromyces appendiculatus (bean rust). The following applies: 240 h, evaluated 10 days after inoculation, read-out: efficacy; for pest or weed control at 125 ppm: 125 ppm of active ingredient; for pest or weed control at 500 ppm: 500 ppm of active ingredient. The protocol:
as §1
After 72 hours, the plants were contaminated by spraying the leaves with an aqueous suspension of Uromyces appendiculatus spores. The contaminated bean plants were incubated for 24 hours at 20° C. and at 100% relative humidity and then for 9 days at 20° C. and at 70-80% relative humidity. The test was evaluated 10 days after the inoculation. 0% means an efficacy which corresponds to that of the control plants while an efficacy of 100% means that no disease was observed.
Compounds CMP5 and CMP6 were tested in an in vivo preventive test on Uromyces appendiculatus (bean rust) in the same conditions as described in Example I.

The subject of data set [4] is Xanthomonas campestris pv. campestris. In words: In vivo preventive test on Xanthomonas campestris pv. campestris (black rot on cabbage). The following applies: evaluated 8 or 10 days after inoculation, read-out: efficacy; for pest or weed control at 125 ppm: 125 ppm of active ingredient; for pest or weed control at 31 ppm: 31 ppm of active ingredient. The protocol: The tested active ingredients were prepared by homogenization in a mixture of acetone/Dimethyl sulfoxide/Tween®, and then diluted with water to obtain the desired active material concentration.
The young plants of cabbage were treated by spraying the active ingredient prepared as described above. Control plants were treated only with an aqueous solution of acetone/Dimethyl sulfoxide/Tween®.
After 72 hours, the plants were contaminated by spraying the leaves with an aqueous bacteria suspension of Xanthomonas campestris pv. campestris. The contaminated cabbage plants were incubated for 8 or 10 days at 27° C. at 95% relative humidity.
The test was evaluated 8 or 10 days after the inoculation. 0% means an efficacy which corresponds to that of the control plants while an efficacy of 100% means that no disease was observed. […]
Compounds CMP1, CMP2, CMP3 and CMP4 were tested in an in vivo preventive test on Xanthomonas campestris pv. campestris (black rot on cabbage) in the same conditions as described in Example H.

Data set [5] concerns Pseudomonas syringae pv. tomato. The data set can be described thus: In vivo preventive test on Pseudomonas syringae pv. tomato (bacterial speck on tomato). The following applies: evaluated 5 or 6 days after inoculation, read-out: efficacy; for pest or weed control at 500 ppm: 500 ppm of active ingredient; for pest or weed control at 31 ppm: 31 ppm of active ingredient. The protocol:
The tested active ingredients were prepared by homogenization in a mixture of acetone/Dimethyl sulfoxide/Tween®, and then diluted with water to obtain the desired active material concentration. The young plants of tomato were treated by spraying the active ingredient prepared as described above. Control plants were treated only with an aqueous solution of acetone/Dimethyl sulfoxide/Tween®.
After 72 hours, the plants were contaminated by spraying the leaves with an aqueous bacteria suspension of Pseudomonas syringae pv. tomato. The contaminated tomato plants were incubated for 4 days in saturated atmosphere at 22° C. day/20° C. night—70% HR and then for 1 or 2 days at 22° C. day/20° C. night at 70-80% relative humidity.
The test was evaluated 5 or 6 days after the inoculation. 0% means an efficacy which corresponds to that of the control plants while an efficacy of 100% means that no disease was observed.
Compounds CMP1 and CMP4 were tested in an in vivo preventive test on Pseudomonas syringae pv. tomato (bacterial speck on tomato) in the same conditions as described in Example J.

Data set [6] shares this test system. In words: Pseudomonas syringae pv. tomato in vitro cell test. Type of data set: cell-based. The following applies: 20 ppm of active ingredient, 24 h incubation, read-out: efficacy (inhibition of bacteria growth). The protocol:
Culture medium: LB broth medium (Luria Broth Miller) Sigma
Inoculum: bacteria suspension
Compounds were solubilized in DMSO and the solution used to prepare the required range of concentrations. The final concentration of DMSO used in the assay was 1%.
(§2) Inoculum was prepared from a pre-culture of bacteria grown in liquid medium and diluted to the desired optical density (OD).
(§3) Compounds were evaluated for their ability to inhibit bacteria growth in liquid culture assay. The compounds were added in the desired concentrations to culture medium containing the bacteria suspension. After 24 h of incubation, the efficacy of compounds was determined by spectrometric measurement of bacteria growth. Inhibition was determined by comparing the absorbance values in wells containing the compounds with the absorbance in control wells without active ingredients.

Data set [7] relates to Xanthomonas campestris pv. campestris. In words: Xanthomonas campestris pv. campestris in vitro cell test. Type of data set: cell-based. The following applies: 20 ppm of active ingredient, 24 h incubation, read-out: efficacy (inhibition of bacteria growth). The procedure:
• Solvent: DMSO • Culture medium: LB broth medium (Luria Broth Miller) Sigma • Inoculum: bacteria suspension
Compounds were solubilized in DMSO and the solution used to prepare the required range of concentrations. The final concentration of DMSO used in the assay was ≤1%.
as §2, §3

Setting [8] is: method [a]: LC-UV, in an acidic range, with 0.1% formic acid in water and acetonitrile as eluent (linear gradient from 10% to 95% acetonitrile).

For `CON(C(=O)c1sc(Cl)c(Cl)c1Cl)C(C)C(=O)O` (stereo not shown) [I.111], the values for the pest or weed control at 125 ppm (in the data set on Peronospora parasitica; in the data set with Uromyces appendiculatus; in data set [4]) were 80 to 89%, 90 to 100% and 70 to 79%, respectively. For the same compound, the pest or weed control at 500 ppm in the data set on Peronospora parasitica lay within 90 to 100%; in [2], 70 to 79%; with Uromyces appendiculatus it was 90 to 100%; in data set [5] it was 80 to 89%. Also, in [1] (setting [8]), the chromatographic logP came out at 2.83. Moreover, the fold induction at 300 ppm in [3] was over 2.
In the case of `COC(=O)C(C)N(OC)C(=O)c1sc(Cl)c(Cl)c1Cl` (stereo not shown) [I.109], the pest or weed control at 31 ppm in the data set with Peronospora parasitica fell in the range of 90 to 100%. The pest or weed control at 125 ppm in the data set with Peronospora parasitica lay in the range of 90 to 100%; in the data set with Uromyces appendiculatus it was 90 to 100%; in [4], 70 to 79%. Also, the pest or weed control at 500 ppm in the data set with Peronospora parasitica was 90 to 100%; in [2], 90 to 100%; with Uromyces appendiculatus, 90 to 100%; in [5], 80 to 89%. For the same compound, the chromatographic logP in data set [1] (setting [8]) came out at 3.72. In addition, the fold induction at 75 ppm in [3] is over 2. Also, in data set [3], the fold induction at 300 ppm was over 2.
Turning to `C[C@H](NC(=O)c1sc(Cl)c(Cl)c1Cl)C(=O)O` [CMP1, reference compound], the pest or weed control at 31 ppm in data set [2] (31 ppm of active ingredient) was under 20%; in data set [4] it was under 40%. Further, in data set [5], the pest or weed control at 500 ppm is under 20%.
On to `CCNC(=O)[C@@H](NC(=O)c1sc(Cl)c(Cl)c1Cl)C(C)C` [I.090], for which the pest or weed control at 31 ppm with Peronospora parasitica fell in the range of 90 to 100%; in [4], 70 to 79%; in data set [5], 90 to 100%. For the same compound, the pest or weed control at 125 ppm with Peronospora parasitica is 90 to 100%; in the data set with Uromyces appendiculatus, 80 to 89%. Moreover, the pest or weed control at 500 ppm (with Peronospora parasitica; in data set [2]; in the data set with Uromyces appendiculatus; in data set [5]) was 90 to 100% each time. Further, the fold induction at 75 ppm in data set [3] was over 2. The fold induction at 300 ppm in data set [3] was over 2.
For `NC(=S)CNC(=O)c1sc(Cl)c(Cl)c1Cl` [I.104, N-(2-amino-2-sulfanylideneethyl)-3,4,5-trichlorothiophene-2-carboxamide], the pest or weed control at 31 ppm with Peronospora parasitica lay within 90 to 100%; in data set [5] it was 70 to 79%. In addition, the pest or weed control at 125 ppm in the data set with Peronospora parasitica was 90 to 100%; in the data set on Uromyces appendiculatus it was 70 to 79%. The pest or weed control at 500 ppm in the data set on Peronospora parasitica was in the range of 90 to 100%; in data set [2], 80 to 89%; in the data set with Uromyces appendiculatus, 90 to 100%; in data set [5] it was 80 to 89%. In addition, the chromatographic logP worked out at 2.53 in [1] (given in the preparation examples, method not marked) and 2.53 in [1] (setting [8]). In addition, the fold induction at 75 ppm in data set [3] is over 2. The fold induction at 300 ppm in data set [3] is over 2.
As to `CCOC(=O)C(C)N(OC)C(=O)c1sc(Cl)c(Cl)c1Cl` (stereo not shown) [I.108], the pest or weed control at 31 ppm (in the data set on Peronospora parasitica; in data set [4]) was 90 to 100% each time. The pest or weed control at 125 ppm with Peronospora parasitica and in the data set with Uromyces appendiculatus was 90 to 100% throughout. For the same compound, the pest or weed control at 500 ppm was in the range of 90 to 100% in the data set with Peronospora parasitica, 90 to 100% in data set [2], 90 to 100% with Uromyces appendiculatus and 80 to 89% in data set [5]. In [1] (setting [8]), this compound registered a chromatographic logP of 4.15. Further, the fold induction at 75 ppm in data set [3] was over 2. The fold induction at 300 ppm in [3] was over 2.
In the case of `CCOC(=O)C(Cc1c[nH]c2ccccc12)NC(=O)c1sc(Cl)c(Cl)c1Cl` (stereo not shown) [I.013], the pest or weed control at 31 ppm in the data set with Peronospora parasitica is 80 to 89%. For the same compound, the pest or weed control at 500 ppm was in the range of 90 to 100% in the data set on Peronospora parasitica, 80 to 89% in data set [2] and 90 to 100% in the data set with Uromyces appendiculatus. The inhibition at 20 ppm in data set [6] and in [7] was at most 30% each time. In data set [1] (setting [8]), this compound yielded a chromatographic logP of 4.44. Besides, in data set [3], the fold induction at 300 ppm is over 2. The pest or weed control at 125 ppm in the data set with Uromyces appendiculatus was 70 to 79%; in [4], 80 to 89%.
